Source: patent US7323468B2, “Pyridopyrazines and the use thereof as kinase inhibitors” (AEterna Zentaris GmbH, priority 2003, dated 2008)

Tested on: Raf-Mek-Erk cascade (GST-c-Raf-DD, GST-Mek1, His-Erk2)
Assay: Raf-Mek-Erk ELISA (cell-free reconstituted cascade, Erk phosphorylation)
Format: biochemical, human
Details: inhibition of Erk phosphorylation, 1 mM ATP, 10 concentrations 31.6 pM-100 μM
Description: The inhibitory effect on the following human serine/threonine and tyrosine kinases of the compounds of the invention was tested in conventional kinase assays: PKB/Akt1, c-Raf, B-Raf, Mek, PDGFRbeta, Flt-3, c-Kit, c-Ab1, KDR, FGFR1 and IGF1R. Both the full-length kinases and truncated fragments—but at least the cytoplasmic, constitutively active kinase domains—were employed. The kinases were prepared as recombinant fusion proteins with GST (glutathion S-transferase) or HIS Tag in Sf9 cell culture. Depending on the substrate type, the various kinase reactions were carried out in sandwich ELISA formates or by means of a simple substrate adsorption assay on 96-well Flashplates (Perkin Elmer).
The testing on substances on the Raf-Mek-Erk cascade is described in detail below. Selected test results for the Raf and Mek inhibitors are then listed.
Procedure: Raf-Mek-Erk ELISA
Potential inhibitors were firstly investigated at a concentration of 20 μg/ml in initial single-dose determinations on 96-well microtiter plates (MTPs). Substances with >70% inhibition were employed for dose-response studies.
Reconstitution of the Raf-Mek-Erk cascade was quantified with the aid of a cell-free ELISA.
A typical kinase assay was carried out in a final volume of 50 μl with in each case 20-150 ng of Raf, Mek, Erk kinase protein, 1 mM ATP, 10 mM MgCl2, 150 mM NaCl, 25 mM beta-glycerophosphate, 25 mM Hepes pH 7.5. Before the kinase reaction, the test substances were each preincubated singly with each of the three kinase proteins at room temperature for 30 minutes. For the kinase reaction, the kinases preincubated with test substance were combined and incubated at 26° C. for 30 minutes. The reaction was stopped by a final concentration of 2% SDS and 10 minutes at 50° C. in a heating block.
For the immunodetection, the reaction mixtures were transferred to 96-well MTPs coated with anti-Erk Ab(K-23, Santa Cruz Biotechnology, incubated at room temperature for 60 minutes and washed 3× with TBST. Anti-phospho-Erk Ab (#9106, New England Biolabs) 1:500 in 50 μl of TBST/1% BSA, was added and incubated at 4° C. overnight. After the MTPs had been washed 3× with TBST, secondary anti-mouse IgG^POD conjugate (#NA931, Pharmacia) 1:2500 was added, incubated at room temperature for 1 h and again washed 3× with TBST. For colorimetric detection of the kinase reaction, 50 μl of OPD (o-phenyldiamine dihydrochloride) chromogen buffer were pipetted into each of the wells and incubated at 37° C. for 30 minutes. The colour reaction was then determined in an ELISA reader at 492 nm.
The experimental determination of dose-response plots took place using the same experimental design with 10 semilogarithmically graded concentrations from 31.6 pM-100 μM. The IC50 values were calculated in GraphPadPrism.

IC50 [µM] | SMILES
> 100 | O=[N+]([O-])c1ccc(NC(=S)Nc2ccc3ncc(-c4ccc5ccccc5c4)nc3n2)cc1 [Example 8, 1-(3-Naphthalen-2-ylpyrido[2,3-b]pyrazin-6-yl)-3-(4-nitrophenyl)thiourea]
> 100 | COc1ccc(-c2cnc3ccc(NC(=S)Nc4ccc([N+](=O)[O-])cc4)nc3n2)cc1 [Example 9, 1-[3-(4-Methoxyphenyl)pyrido[2,3-b]pyrazin-6-yl]-3-(4-nitrophenyl)thiourea]
> 100 | CC(C)(C)NC(=S)Nc1ccc2ncc(-c3ccccc3)nc2n1 [Example 10, 1-tert-Butyl-3-(3-phenylpyrido[2,3-b]pyrazin-6-yl)thiourea]
> 100 | S=C(NCc1ccccc1)Nc1ccc2ncc(-c3ccccc3)nc2n1 [Example 13, 1-Benzyl-3-(3-phenylpyrido[2,3-b]pyrazin-6-yl)thiourea]
> 100 | Cc1ccc(NC(=O)Nc2ccc3ncc(-c4ccccc4)nc3n2)cc1 [Example 15, 1-(3-Phenylpyrido[2,3-b]pyrazin-6-yl)-3-p-tolylurea]
> 100 | O=C(Nc1ccc(Cl)c(C(F)(F)F)c1)Nc1ccc2ncc(-c3ccccc3)nc2n1 [Example 16, 1-(4-Chloro-3-trifluoromethylphenyl)-3-(3-phenylpyrido[2,3-b]pyrazin-6-yl)urea]

Tested on: not given
Assay: not given
Details: not given

melting point | SMILES
239 to 240 °C (dec.) | C=C(C)CNC(=S)Nc1ccc2ncc(-c3ccc4ccccc4c3)nc2n1 [Example 6, 1-(2-Methylallyl)-3-(3-naphthalen-2-ylpyrido[2,3-b]pyrazin-6-yl)thiourea]
